The structures appear in SMILES notation.

This test has as its system chitin deacetylase (CDA). Nature of the test: p-nitroaniline release, absorbance at […] nm. In kind it is biochemical, Aneurinibacillus aneurinilyticus. The following applies: 50 mM phosphate buffer pH 7.4, 37 °C; partially purified enzyme with two bands.

As a reminder, the Km is the substrate concentration at which the rate is half of its maximum. `CC(=O)Nc1ccc([N+](=O)[O-])cc1` [p-nitroacetanilide]: the Km was 98.5 µM.

The record behind these values is article PMC11638627 (Current Research in Microbial Sciences, 2024).
